Source: patent US9464084B2, “P2X7 modulators” (Janssen Pharmaceutica NV, priority 2013, dated 2016)
Where a name gives a salt, the structure may show the parent alone.

What was measured:
[1] = target: T1, P2X7 (Homo sapiens (Human), UniProt Q99572); experiment: P2X7 antagonism in human PBMCs (LPS + Bz-ATP induced IL-1β release, ELISA); type: cell-based; settings: LPS 30 ng/ml, Bz-ATP 0.5 mM; for PBMC 10 μM (% control): compound 10 μM; for PBMC 1 μM (% control): compound 1 μM;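 on all read-outs here: PBMCs from donor human blood, with a further 1.5 h incubation of the cells in the assay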
[2] = target: T1, P2X7; experiment: Radioligand binding, tritiated A-804598, human P2X7-1321N1 cell membranes; settings: 1 hour at 4° C.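 Further: ki obtained from the binding IC50 after correction for tracer concentration and tracer affinity.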
Method: On the day of the experiment, cell membrane preparations were made according to standard published methods. […] The assay was terminated by filtration (GF/B filters pre-soaked with 0.3% PEI) and washed with washing buffer (Tris-HCl 50 mM). The IC50 generated in the binding assay was corrected for tracer concentration and affinity of the tracer to derive at the affinity (Ki) of the test compounds.

[3] = target: T1, P2X7; experiment: Ca2+ flux (FLIPR) in 1321N1 cells expressing recombinant human P2X7 channel; type: cell-based; settings: 250 μM BzATP;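 further: Calcium-4 dye-loaded cells exposed to compound for 30 min before agonist addition, fluorescence change read 180 s after agonist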
[4] = target: rat P2X7 (Rattus norvegicus (Rat), UniProt Q64663); experiment: Ca2+ flux (FLIPR) in 1321N1 cells expressing recombinant rat P2X7 channel; type: cell-based; settings: 250 μM BzATP;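 further: Calcium-4 dye fluorescence change read 180 s after agonist addition, following 30 min cell preincubation with test compound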
Sequence of rat P2X7 (Q64663 whole entry): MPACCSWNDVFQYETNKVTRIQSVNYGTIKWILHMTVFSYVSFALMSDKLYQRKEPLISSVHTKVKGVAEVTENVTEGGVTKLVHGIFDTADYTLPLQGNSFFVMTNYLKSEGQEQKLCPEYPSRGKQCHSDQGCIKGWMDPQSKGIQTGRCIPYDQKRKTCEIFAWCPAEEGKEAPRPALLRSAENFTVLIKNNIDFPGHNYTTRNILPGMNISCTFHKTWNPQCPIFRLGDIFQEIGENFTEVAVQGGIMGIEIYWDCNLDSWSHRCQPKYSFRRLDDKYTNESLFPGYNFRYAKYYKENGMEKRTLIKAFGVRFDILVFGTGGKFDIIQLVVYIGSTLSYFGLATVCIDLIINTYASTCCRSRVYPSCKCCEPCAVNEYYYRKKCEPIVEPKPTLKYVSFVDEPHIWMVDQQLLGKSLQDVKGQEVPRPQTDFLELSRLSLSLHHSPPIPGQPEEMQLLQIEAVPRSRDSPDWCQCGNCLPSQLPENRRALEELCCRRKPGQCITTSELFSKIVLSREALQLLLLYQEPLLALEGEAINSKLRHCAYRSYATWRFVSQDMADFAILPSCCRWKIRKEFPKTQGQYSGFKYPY

T1 sequence (Q99572 whole entry): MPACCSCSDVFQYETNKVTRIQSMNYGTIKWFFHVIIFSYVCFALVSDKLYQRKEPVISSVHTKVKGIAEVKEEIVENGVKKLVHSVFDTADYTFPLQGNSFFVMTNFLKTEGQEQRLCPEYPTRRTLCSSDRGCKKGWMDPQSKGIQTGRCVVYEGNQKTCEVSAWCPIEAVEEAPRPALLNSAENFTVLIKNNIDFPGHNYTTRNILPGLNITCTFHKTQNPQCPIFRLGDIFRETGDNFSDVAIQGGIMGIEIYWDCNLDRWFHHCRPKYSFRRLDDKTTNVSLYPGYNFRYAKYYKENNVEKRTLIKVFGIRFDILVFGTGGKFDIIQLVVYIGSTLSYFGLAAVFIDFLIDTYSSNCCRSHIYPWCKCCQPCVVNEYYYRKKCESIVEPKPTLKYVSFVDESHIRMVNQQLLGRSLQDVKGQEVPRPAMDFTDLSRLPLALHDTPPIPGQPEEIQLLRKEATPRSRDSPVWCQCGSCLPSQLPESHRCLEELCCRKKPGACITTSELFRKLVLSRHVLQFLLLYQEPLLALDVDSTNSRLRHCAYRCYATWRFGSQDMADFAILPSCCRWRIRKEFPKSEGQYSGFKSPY

Compound	PBMC 10 μM (% control) [1] [% control]	Ki [2] [nM]	IC50 [3] [nM]	IC50 [4] [nM]	PBMC 1 μM (% control) [1] [% control]
Cn1nc2c(c1-c1cncnc1)CCN(C(=O)c1cccc(C(F)(F)F)c1Cl)C2 [Example 113, 6-{[2-Chloro-3-(trifluoromethyl)phenyl]carbonyl}-2-methyl-3-pyrimidin-5-yl-4,5,6,7-tetrahydro-2H-pyrazolo[3,4-c]pyridine]	42.6	398	855	> 10000	
O=C(c1cccc(Cl)c1Cl)N1CCc2c(nnn2-c2ccccc2)C1 [Example 62, 5-[(2,3-Dichlorophenyl)carbonyl]-1-phenyl-4,5,6,7-tetrahydro-1H-[1,2,3]triazolo[4,5-c]pyridine]		43.7	76.2	4280	5.2
CN(C)C(=O)C1c2ncn(-c3ccccn3)c2CCN1C(=O)c1cccc(C(F)(F)F)c1Cl (stereo not shown) [Example 34, 5-{[2-Chloro-3-(trifluoromethyl)phenyl]carbonyl}-N,N-dimethyl-1-pyridin-2-yl-4,5,6,7-tetrahydro-1H-imidazo[4,5-c]pyridine-4-carboxamide]		631	158	158	29.8
CC1c2nnn(-c3ccc(F)cc3)c2CCN1C(=O)c1cccc(C(F)(F)F)c1Cl (stereo not shown) [Example 83, 5-{[2-Chloro-3-(trifluoromethyl)phenyl]carbonyl}-1-(4-fluorophenyl)-4-methyl-4,5,6,7-tetrahydro-1H-[1,2,3]triazolo[4,5-c]pyridine]	4.5	158	16.9	397	
CC1c2nnn(-c3ccc(F)cc3)c2C=CN1C(=O)c1cccc(C(F)(F)F)c1Cl (stereo not shown) [Example 81, 5-{[2-Chloro-3-(trifluoromethyl)phenyl]carbonyl}-1-(4-fluorophenyl)-4-methyl-4,5-dihydro-1H-[1,2,3]triazolo[4,5-c]pyridine]	5.9	63.1	73.5	108	
O=C(c1ccc(Cl)cc1F)N1CCc2c(nnn2-c2ncccn2)C1 [Example 280, (4-chloro-2-fluorophenyl)(1-(pyrimidin-2-yl)-6,7-dihydro-1H-[1,2,3]triazolo[4,5-c]pyridin-5(4H)-yl)methanone]	3.4	63.1	568	1230	
O=C(c1cccc(C(F)(F)F)c1F)N1CCc2c(nnn2-c2ccccn2)C1 [Example 123, (2-Fluoro-3-(trifluoromethyl)phenyl)(1-(pyridin-2-yl)-6,7-dihydro-1H-[1,2,3]triazolo[4,5-c]pyridin-5(4H)-yl)methanone]		63.1	50.1	1000	22.0
CC1c2nnn(-c3cc[nH]n3)c2C=CN1C(=O)c1cccc(C(F)(F)F)c1Cl (stereo not shown) [Example 86, 5-{[2-Chloro-3-(trifluoromethyl)phenyl]carbonyl}-4-methyl-1-(1H-pyrazol-3-yl)-4,5-dihydro-1H-[1,2,3]triazolo[4,5-c]pyridine]	13.0	39.8	12.9	136	
CCOC(=O)C1c2ncn(-c3ccccc3)c2CCN1C(=O)c1cccc(C(F)(F)F)c1Cl (stereo not shown) [Example 26, Ethyl 5-(2-chloro-3-(trifluoromethyl)benzoyl)-1-phenyl-4,5,6,7-tetrahydro-1H-imidazo[4,5-c]pyridine-4-carboxylate]		85.1	9.8	71	14.0
C[C@H]1c2nnn(-c3cccc(F)n3)c2CCN1C(=O)c1cccc(C(F)(F)F)c1Cl (single isomer, unassigned) [Example 147, (S*)-(2-Chloro-3-(trifluoromethyl)phenyl)(1-(6-fluoropyridin-2-yl)-4-methyl-6,7-dihydro-1H-[1,2,3]triazolo[4,5-c]pyridin-5(4H)-yl)methanone]	−8.9	39.8	11.3	507	
O=C(c1cccc(Cl)c1Cl)N1CCc2c(nc(C(F)(F)F)n2-c2ccccc2)C1 [Example 58, 5-[(2,3-Dichlorophenyl)carbonyl]-1-phenyl-2-(trifluoromethyl)-4,5,6,7-tetrahydro-1H-imidazo[4,5-c]pyridine]	−2.0	126	10.7	766	
O=C(c1cccc(C(F)(F)F)c1Cl)N1CCc2c(-c3ccccn3)n[nH]c2C1 [Example 93, 6-{[2-Chloro-3-(trifluoromethyl)phenyl]carbonyl}-3-pyridin-2-yl-4,5,6,7-tetrahydro-2H-pyrazolo[3,4-c]pyridine. TFA salt]		39.8	7.9	251	9.0
CC1c2ncn(-c3ccc(F)cc3)c2CCN1C(=O)c1cccc(C(F)(F)F)c1F (stereo not shown) [Example 20, (2-Fluoro-3-(trifluoromethyl)phenyl)(1-(4-fluorophenyl)-4-methyl-6,7-dihydro-1H-imidazo[4,5-c]pyridin-5(4H)-yl)methanone]	8.6	501	931	2370	
CC1c2nnn(-c3cnccn3)c2CCN1C(=O)c1ccc(Cl)cc1F (stereo not shown) [Example 274, (4-chloro-2-fluorophenyl)(4-methyl-1-(pyrazin-2-yl)-6,7-dihydro-1H-[1,2,3]triazolo[4,5-c]pyridin-5(4H)-yl)methanone]	−4.8	41.7	74.5	1880	

Results, then the compound that gave them:

PBMC 10 μM (% control) [1] [% control]	Ki [2] [nM]	IC50 [3] [nM]	IC50 [4] [nM]	PBMC 1 μM (% control) [1] [% control]	Compound
11.8	25.1	1.1	1		C[C@H]1Cc2c(nnn2-c2ncccn2)CN1C(=O)c1cccc(C(F)(F)F)c1Cl (single isomer, unassigned) [Example 222, (6S*)-5-{[2-Chloro-3-(trifluoromethyl)phenyl]carbonyl}-6-methyl-1-pyrimidin-2-yl-4,5,6,7-tetrahydro-1H-[1,2,3]triazolo[4,5-c]pyridine]
0.5	13.5	3.9	6.3		CC1Cc2c(nnn2-c2cc[nH]n2)CN1C(=O)c1cccc(C(F)(F)F)c1F (stereo not shown) [Example 189, (2-fluoro-3-(trifluoromethyl)phenyl)(6-methyl-1-(1H-pyrazol-3-yl)-6,7-dihydro-1H-[1,2,3]triazolo[4,5-c]pyridin-5(4H)-yl)methanone]
	26.3	5.4	440	2.8	Cn1nc2c(c1-c1ccccn1)CCN(C(=O)c1cccc(C(F)(F)F)c1Cl)C2 [Example 92, 6-{[2-Chloro-3-(trifluoromethyl)phenyl]carbonyl}-2-methyl-3-pyridin-2-yl-4,5,6,7-tetrahydro-2H-pyrazolo[3,4-c]pyridine]
	38.9	4.7	1400	−0.1	O=C(c1cccc(C(F)(F)F)c1Cl)N1CCc2c(nnn2-c2ccccc2)C1 [Example 61, 5-{[2-Chloro-3-(trifluoromethyl)phenyl]carbonyl}-1-phenyl-4,5,6,7-tetrahydro-1H-[1,2,3]triazolo[4,5-c]pyridine]
−3.4	25.1	81.5	60.4		CC1Cc2c(nnn2-c2ccc(F)cc2)C(C)N1C(=O)c1cccc(Cl)c1Cl (stereo not shown) [Example 242, (2,3-Dichlorophenyl)(1-(4-fluorophenyl)-4,6-dimethyl-6,7-dihydro-1H-[1,2,3]triazolo[4,5-c]pyridin-5(4H)-yl)methanone]
11.6	31.6	12.4	324		O=C(c1cccc(C(F)(F)F)c1Cl)N1CCc2c(ncn2-c2ccn[nH]2)C1 [Example 5, (1-(1H-Pyrazol-5-yl)-6,7-dihydro-1H-imidazo[4,5-c]pyridin-5(4H)-yl)(2-chloro-3-(trifluoromethyl)phenyl)methanone]
−50.8	10	8.1	9.5		CC1Cc2c(-c3ccn[nH]3)n[nH]c2CN1C(=O)c1cccc(C(F)(F)F)c1Cl (stereo not shown) [Example 267, (2-chloro-3-(trifluoromethyl)phenyl)(5-methyl-3-(1H-pyrazol-5-yl)-4,5-dihydro-1H-pyrazolo[3,4-c]pyridin-6(7H)-yl)methanone]
	15.8	5.5	908	−1.5	O=C(c1cccc(C(F)(F)F)c1Cl)N1C=Cc2c(nnn2-c2cnccn2)C1 [Example 89, 5-{[2-Chloro-3-(trifluoromethyl)phenyl]carbonyl}-1-pyrazin-2-yl-4,5-dihydro-1H-[1,2,3]triazolo[4,5-c]pyridine]
−3.7	25.1	46.5	2570		O=C(c1cccc(Cl)c1Cl)N1CCc2c(ncn2-c2ccccn2)C1 [Example 4, (2,3-Dichlorophenyl)(1-(pyridin-2-yl)-6,7-dihydro-1H-imidazo[4,5-c]pyridin-5(4H)-yl)methanone]
−0.2	11.2	3.2	6.5		CC1Cc2c(nnn2-c2ccccn2)CN1C(=O)c1ccc(F)c(Cl)c1Cl (stereo not shown) [Example 121, 5-[(2,3-Dichloro-4-fluorophenyl)carbonyl]-6-methyl-1-pyridin-2-yl-4,5,6,7-tetrahydro-1H-[1,2,3]triazolo[4,5-c]pyridine]
6.8	14.1	106	1460		O=C(c1cccc(C(F)(F)F)c1F)N1CCc2c(nnn2-c2cnccn2)C1 [Example 69, 5-{[2-Fluoro-3-(trifluoromethyl)phenyl]carbonyl}-1-pyrazin-2-yl-4,5,6,7-tetrahydro-1H-[1,2,3]triazolo[4,5-c]pyridine]
